This assay relates to L. donovani-infected THP-1 macrophages, intracellular amastigote imaging. The assay can be described thus: antileishmanial activity in infected THP-1 macrophages – imaging, THP-1 host macrophages, host toxicity (AID 1159564).
[1] abbreviates: measured here: THP-1 host cell toxicity.
[2] abbreviates: measured here: amastigotes per macrophage.

The source made the active and inactive calls. No rule for the calls is given here.

On to `COc1ccc(-c2cc(C)no2)cc1S(=O)(=O)Nc1ccc(C)c(C)c1`, for which the IC50 is 2.5 µM. This compound had a half-maximal inhibitory concentration (IC50) under setting [1] greater than 50 µM. Under setting [2], this compound came in with an IC50 of 2 µM.
With `O=C(O)[C@H]1C[C@@H]1c1ccc(-c2ccc(CN(CCc3ccccn3)C(=O)C3CCC3)cc2)cc1`, the IC50 is > 50 µM (inactive). The compound also displayed an IC50 under setting [1] greater than 50 µM. The IC50 under setting [2] is greater than 50 µM.
Turning to `Cc1nn(-c2ccccc2)nc1CNC(=O)CN(Cc1ccccn1)Cc1ccccn1`, the 50% inhibitory concentration (IC50) is 5 µM. Under setting [1], this compound displayed an IC50 of 63 µM. The compound also gave a half-maximal inhibitory concentration (IC50) under setting [2] of 5 µM.
Consider `O=C(C1CCCCC1)N1CCN(c2nnc(-c3ccccc3)c3ccccc23)CC1`, for which the IC50 was > 50 µM (inactive). This compound registered an IC50 under setting [1] of 50 µM. For the same compound, the 50% inhibitory concentration (IC50) under setting [2] worked out at 20 µM.
Consider `CCCC(=O)N(Cc1ccccn1)c1nc2ccccc2s1`, for which the IC50 is > 50 µM (inactive). Further, the half-maximal inhibitory concentration (IC50) under setting [1] was greater than 50 µM. Besides, the concentration for half-maximal inhibition (IC50) under setting [2] came out at 10 µM.
The matching figures for `COc1ccc2ncc(F)c(CCN3CC[C@@H](NC(=O)c4cc5c(s4)CCC5)[C@@H](O)C3)c2n1`: 6.3 µM, 25 µM and 1.3 µM.
As for `Cn1nccc1-c1cc(OC(CN)c2ccccc2)cnc1-c1ccco1` (stereo unspecified), the IC50 was > 50 µM (inactive). Besides, the IC50 under setting [1] stood at 16 µM. The concentration for half-maximal inhibition (IC50) under setting [2] turned out to be 32 µM.
In the same order, the values of `CN1C(=O)c2ccccc2Sc2ccc(NC(=O)NCc3ccco3)cc21` are > 50 µM (inactive), greater than 50 µM and 25 µM.
Turning to `CN(C)Cc1cccc(Nc2nccc(-c3ccc(NCCN)c(C#N)c3)n2)c1`, the IC50 is 1.3 µM. Besides, the concentration for half-maximal inhibition (IC50) under setting [1] is 6.3 µM. Under setting [2], this compound had a concentration for half-maximal inhibition (IC50) of 0.5 µM.
In the same order, the values of `COc1ccc(CNc2nsc3ccccc23)cc1OC` are 6.3 µM, 25 µM and 5 µM.
For the compound `COc1ncc(-c2ccc3nccc(-c4ccncc4)c3c2)cc1NS(C)(=O)=O`, the IC50 is 2.5 µM. The same compound gave a concentration for half-maximal inhibition (IC50) under setting [1] of 3.2 µM. Also, the IC50 under setting [2] worked out at 0.63 µM.
Consider `COc1cc(C2SCC(=O)Nc3c2c(C)nn3-c2nc3ccccc3s2)cc(OC)c1O` (stereo unspecified), for which the IC50 is 0.32 µM. Under setting [1], this compound had an IC50 greater than 50 µM. The IC50 under setting [2] was 0.25 µM.
Turning to `O=c1cc(NCCCNCc2cc(C(F)(F)F)cs2)[nH]c2ccccc12`, the IC50 was 40 µM. For the same compound, the IC50 under setting [1] came out at 20 µM. The half-inhibitory concentration (IC50) under setting [2] was 25 µM.
On to `Cc1nc2c(-c3cccs3)c(C)nn2c(NCCO)c1C`, for which the IC50 is > 50 µM (inactive). Under setting [1], this compound showed a half-maximal inhibitory concentration (IC50) greater than 50 µM. Moreover, the IC50 under setting [2] is greater than 50 µM.
In the case of `N#Cc1ccc(S(=O)(=O)N2CCC3(CCN(c4ccccc4)C3=O)CC2)cc1`, the IC50 is > 50 µM (inactive). The IC50 under setting [1] was greater than 50 µM. Besides, the IC50 under setting [2] was greater than 50 µM.
Consider `Oc1c(-c2n[nH]c(CCc3ccccc3)n2)ncc2cccnc12`, for which the concentration for half-maximal inhibition (IC50) was 4 µM. Under setting [1], the IC50 is 20 µM. Under setting [2], this compound returned an IC50 of 3.2 µM.
On to `CCS(=O)(=O)Nc1ccc(C2=NN(C(=O)c3cccs3)C(c3ccccc3OC)C2)cc1` (stereo unspecified), for which the IC50 was 7.9 µM. Under setting [1], this compound returned an IC50 greater than 50 µM. Under setting [2], this compound registered an IC50 of 7.9 µM.
`CN(C)c1ccc(N)cc1CN(CC1CCCO1)S(C)(=O)=O` (stereo unspecified): the half-maximal inhibitory concentration (IC50) was 13 µM. Under setting [1], this compound yielded an IC50 greater than 50 µM. The same compound returned an IC50 under setting [2] of 10 µM.
On to `Cc1cc(Br)sc1CNCCCNc1cc(=O)c2ccccc2[nH]1`, for which the IC50 is 25 µM. This compound also had a 50% inhibitory concentration (IC50) under setting [1] of 20 µM. The compound also showed a 50% inhibitory concentration (IC50) under setting [2] of 20 µM.
Regarding `CCOC(=O)c1noc(N)c1-c1ccccc1`, the IC50 was > 50 µM (inactive). Also, under setting [1], the IC50 was greater than 50 µM. The same compound yielded an IC50 under setting [2] greater than 50 µM.
For `Cc1ccccc1NS(=O)(=O)c1ccc2[nH]cc(C(=O)NC3CCCCC3)c(=O)c2c1`, the IC50 was 40 µM. Under setting [1], this compound came in with a half-inhibitory concentration (IC50) of 32 µM. Besides, the 50% inhibitory concentration (IC50) under setting [2] turned out to be 40 µM.
Regarding `CC1(Oc2cncc(Cl)c2)CCN(Cc2cc3ccccc3[nH]2)C1` (stereo unspecified), the IC50 is 20 µM. Besides, under setting [1], the IC50 stood at 32 µM. For the same compound, the 50% inhibitory concentration (IC50) under setting [2] came out at 32 µM.
For the compound `CN(C)S(=O)(=O)c1ccc(-c2cnc(N)c(-c3nc4ccc(F)cc4[nH]3)c2)cc1`, the half-maximal inhibitory concentration (IC50) is 1.6 µM. Under setting [1], this compound gave an IC50 of 4 µM. Also, under setting [2], the IC50 was found to be 0.63 µM.
Regarding `COc1ccc(NS(=O)(=O)c2cc(-c3cc(C)[nH]n3)ccc2C)cc1OC`, the IC50 is 10 µM. Under setting [1], the IC50 was greater than 50 µM. Under setting [2], this compound displayed an IC50 of 7.9 µM.
Consider `CC(=O)Nc1ccc(-c2csc(NC(=O)c3ccc([N+](=O)[O-])s3)n2)cc1`, for which the half-maximal inhibitory concentration (IC50) was 1 µM. Under setting [1], this compound displayed a half-inhibitory concentration (IC50) of 13 µM. In addition, under setting [2], the IC50 is 0.79 µM.
The matching figures for `O=[N+]([O-])c1ccc(C2=CC(c3ccccc3)=NCCN2)cc1`: 20 µM, 40 µM and 7.9 µM.
Take `CNc1cc(Cn2c(C(=O)c3cc(C)cc(Cl)c3)c(C(C)C)c(=O)[nH]c2=O)ccn1`: the IC50 is 20 µM. The IC50 under setting [1] was greater than 50 µM. Under setting [2], this compound came in with an IC50 of 13 µM.

The values above are taken from PubChem BioAssay AID1159564 (GlaxoSmithKline (GSK), 2015).
